System: human IgG in mouse serum
Test: Immunoglobulin G (IgG) mRNA in vivo evaluation using lipid nanoparticle compositions (human IgG ELISA of mouse serum)
Set-up: species or system CD-1/ICR mice
Conditions: lipid formulated as LNP (cationic lipid/DSPC/cholesterol/PEG lipid) with IgG mRNA, tail vein injection, mice, serum measured 24 hours after administration; for Serum IgG (ug/mL) @ 0.3 mg/kg: 0.3 mg mRNA/kg; for Serum IgG (ug/mL) @ 1.0 mg/kg: 1.0 mg mRNA/kg
Experimental: A lipid of Formula (I), DSPC, cholesterol and PEG-lipid of Formula (II) are solubilized in ethanol at a molar ratio of 50:10:38.5:1.5 or 47.5:10:40.7:1.8. Lipid nanoparticles (LNP) are prepared at a total lipid to mRNA weight ratio of approximately 10:1 to 40:1. Briefly, the mRNA is diluted to 0.2 mg/mL in 10 to 50 mM citrate buffer, pH 4 to 6 or 10 to 25 mM acetate buffer, pH 4 to 6. Syringe pumps are used to mix the ethanolic lipid solution with the mRNA aqueous solution at a ratio of about 1:5 to 1:3 (vol/vol) with total flow rates above 15 mL/min. The ethanol is then removed, and the external buffer replaced with PBS by dialysis. Finally, the lipid nanoparticles are filtered through a 0.2 μm pore sterile filter.
Studies are performed in 6-8-week-old CD-1/ICR mice (Charles River or Inotiv) according to guidelines established by an institutional animal care committee (ACC) and the Canadian Council on Animal Care (CCAC). Varying doses of mRNA-lipid nanoparticle are systemically administered by tail vein injection and animals euthanized at a specific time point (e.g., 24 hours) post-administration. The whole blood is collected, and the serum subsequentially separated by centrifuging the tubes of the whole blood at 2000×g for 10 minutes at 4° C. and stored at −80° C. until use for analysis.
For immunoglobulin G (IgG) ELISA (Life Diagnostics Human IgG ELISA kit), the serum samples are diluted at 100 to 20,000 fold with 1× diluent solution. 100 μL of diluted serum is dispensed into anti-human IgG coated 96-well plate in duplicate alongside human IgG standards and incubated in a plate shaker at 150 rpm at 25° C. for 45 minutes. The wells are washed 5 times with 1× wash solution using a plate washer (400 μL/well). 100 μL of HRP conjugate is added into each well and incubated in a plate shaker at the same condition above. The wells are washed 5 times again with 1× wash solution using a plate washer (400 μL/well). 100 μL of TMB reagent is added into each well and incubated in a plate shaker at the same condition above. The reaction is stopped by adding 100 μL of Stop solution to each well. The absorbance is read at 450 nm (A450) with a microplate reader. The amount of human IgG in mouse serum is determined by plotting A450 values for the assay standard against human IgG concentration.
Representative compounds of the disclosure shown in Table 2 were formulated using the following molar ratio: 50% cationic lipid/10% distearoylphosphatidylcholine (DSPC)/38.5% Cholesterol/1.5% PEG lipid 2-[2-(ω-methoxy(polyethyleneglycol2000)ethoxy]-N,N-ditetradecylacetamide) or 47.5% cationic lipid/10% DSPC/40.7% Cholesterol/1.8% PEG lipid. Relative activity was determined by measuring the amount of human IgG in mouse serum as described in Example 2. The activity was compared at a dose of 1.0 or 0.3 mg mRNA/kg and expressed as ng luciferase/g liver measured 4 hours after administration, as described in Example 1 or as μg IgG/mL serum measured 24 hours after administration, as described in Example 2. Compound numbers in Table 2 refer to the compound numbers of Table 1.

SMILES	Serum IgG (ug/mL) @ 0.3 mg/kg [µg/mL]	Serum IgG (ug/mL) @ 1.0 mg/kg [µg/mL]
CCCCCCCCCCN(CCCCCCCCCC)C(=O)CCCCCCCCC(CCCCCCCCC(=O)N(CCCCCCCCCC)CCCCCCCCCC)N(CCCCCCCCCC)C(=O)CCN(C)C [Compound I-1, N^1,N^1,N^19,N^19-tetrakis(decyl)-10-(N-decyl-3-(dimethylamino)propanamido)nonadecanediamide]	18.5 ± 6.7	
CCCCCCCCCCN(CCCCCCCCCC)C(=O)CCCCCCCN(CCCCCCCC(=O)N(CCCCCCCCCC)CCCCCCCCCC)C(=O)C(F)CCN(C)C (stereo not shown) [Compound I-2, N,N-didecyl-8-(N-(8-(didecylamino)-8-oxooctyl)-4-(dimethylamino)-2-fluorobutanamido)octanamide]	23.2 ± 6.1	69.8 ± 18.2
CCCCCCCCCCN(CCCCCCCCN(CCCCCCCC(=O)N(CCCCCCCCCC)CCCCCCCCCC)C(=O)C(F)CCN(C)C)C(=O)CCCCCCCCC (stereo not shown) [Compound I-3, N-decyl-N-(8-(N-(8-(didecylamino)-8-oxooctyl)-4-(dimethylamino)-2-fluorobutanamido)octyl)decanamide]	16.2 ± 4.3	52.7 ± 8.4
CCCCCCCCCCN(CCCCCCCCCC)C(=O)CCCCCCCN(CCCCCCCC(=O)N(CCCCCCCCCC)CCCCCCCCCC)C(=O)CN(C)C [Compound I-4, N,N-didecyl-8-(N-(8-(didecylamino)-8-oxooctyl)-2-(dimethylamino)acetamido)octanamide]	24.2 ± 4.5	
CCCCCCCCCCN(CCCCCCCCN(CCCCCCCC(=O)N(CCCCCCCCCC)CCCCCCCCCC)C(=O)CN(C)C)C(=O)CCCCCCCCC [Compound I-5, N-decyl-N-(8-(N-(8-(didecylamino)-8-oxooctyl)-2-(dimethylamino)acetamido)octyl)decanamide]	25.9 ± 11.8	73.4 ± 14.9
CCCCCCCCCCN(CCCCCCCCCC)C(=O)CCCCCCCN(CCCCCCCC(=O)N(CCCCCCCCCC)CCCCCCCCCC)C(=O)OCCN(C)C [Compound I-6, 2-(dimethylamino)ethyl bis(8-(didecylamino)-8-oxooctyl)carbamate]	20.5 ± 4.0	197.5 ± 39.3
CCCCCCCCCCN(CCCCCCCCCC)C(=O)CCCCCCCN(CCCCCCCC(=O)N(CCCCCCCCCC)CCCCCCCCCC)C(=O)OCCCN(C)C [Compound I-7, 3-(dimethylamino)propyl bis(8-(didecylamino)-8-oxooctyl)carbamate]	30.8 ± 7.5	
CCCCCCCCCCN(CCCCCCCCCC)C(=O)CCCCCCCCCN(CCCCCCCCCC(=O)N(CCCCCCCCCC)CCCCCCCCCC)C(=O)OCCCN(C)C [Compound I-8, 3-(dimethylamino)propyl bis(10-(didecylamino)-10-oxodecyl)carbamate]	10.6 ± 5.0	
CCCCCCCCCCN(CCCCCCCCCC)C(=O)CCCCCCCCC(CCCCCCCCC(=O)N(CCCCCCCCCC)CCCCCCCCCC)OC(=O)CCCCN(C)C [Compound I-9, 1,19-bis(didecylamino)-1,19-dioxononadecan-10-yl 5-(dimethylamino)pentanoate]	13.4 ± 7.5	59.5 ± 25.6
CCCCCCCCCCN(CCCCCCCCCC)C(=O)CCCCCCCCC(CCCCCCCCC(=O)N(CCCCCCCCCC)CCCCCCCCCC)OC(=O)CCCN(C)C [Compound I-10, 1,19-bis(didecylamino)-1,19-dioxononadecan-10-yl 4-(dimethylamino)butanoate]	19.0 ± 3.3	
CCCCCCCCCCN(CCCCCCCCCC)C(=O)CCCCCCCCC(CCCCCCCCC(=O)N(CCCCCCCCCC)CCCCCCCCCC)N(CCCCCCCCCC)C(=O)C(F)CCCN(C)C (stereo not shown) [Compound I-12, N^1,N^1,N^19,N^19-tetrakis(decyl)-10-(n-decyl-5-(dimethylamino)-2-fluoropentanamido)nonadecanediamide]	13.9 ± 4.7	
CCCCCCCCCCN(CCCCCCCCCC)C(=O)CCCCCCCCC(CCCCCCCCC(=O)N(CCCC)C(CCCCCCCC)CCCCCCCC)N(CCCCCCCCCC)C(=O)CCN(C)C (stereo not shown) [Compound I-17, N^1-butyl-N^19,N^19-didecyl-10-(n-decyl-3-(dimethylamino)propanamido)-N-(heptadecan-9-yl)nonadecanediamide]	10.1 ± 4.03	
CCCCCCCCCCN(CCCCCCCCCC)C(=O)CCCCCC(CCCCCC(=O)N(CCCCCCCCCC)CCCCCCCCCC)OC(=O)CCCN(C)C [Compound I-18, 1,13-bis(didecylamino)-1,13-dioxotridecan-7-yl 4-(dimethylamino)butanoate]	18.0 ± 2.0	
CCCCCCCCCCCCN(CCCCCCCCCCN(CCCCCCCCCCN(CCCCCCCCCCCC)C(=O)CCCCCCC)C(=O)OCCCN1CCCC1)C(=O)CCCCCCC [Compound I-20, 3-(pyrrolidin-1-yl)propyl bis(10-(n-dodecyloctanamido)decyl)carbamate]	7.9 ± 3.6	

Source: patent publication US20240423914A1, “AMIDE CONTAINING LIPIDS” (Acuitas Therapeutics, Inc., priority 2023, published 2024)
